Laboratory results reported in US11352637B2, “Methods and compositions for herbicide tolerance in plants” (MONSANTO TECHNOLOGY LLC, priority 2017, dated 2022).

How the values were obtained:
[1] = test system: KsIAA16R in combination with KsAFB6; test: Yeast two-hybrid (Y2H) assay: KsIAA16R binding with KsAFB6 in presence of auxin; design: species or system Kochia scoparia; conditions: for Interaction between KsIAA16R and KsAFB6 in the presence of the auxin: at the concentrations tested
Method: (§1) Yeast two-hybrid (Y2H) studies were conducted using the Matchmaker® Gold Yeast Two-Hybrid System: vectors, transformation protocols and yeast strains (Clonetech Laboratories, Inc.). The coding sequences for the KsIAA16R (SEQ ID NO: 220), KsIAA16S (SEQ ID NO: 218), KsTIR1 (SEQ ID NO: 285), KsAFB6 (SEQ ID NO: 287), KsAFB2 (SEQ ID NO: 289), and KsAFB5 (SEQ ID NO: 291) were PCR amplified using primers specified in Table 2.
(§2) PCR products were gel purified and recombined into NdeI/NotI digested pGADT7 or pGBKT7 vectors using the In-Fusion® cloning system (Clonetech Laboratories, Inc.). The pGBKT7 vector contained the GAL4 DNA binding domain, rendering the fusions as the “bait,” whereas the “prey” were the fusions containing the pGADT7 vector, which contained the GAL4 activation domain. All vectors were first sequence verified and then the listed vector combinations were co-transformed into the yeast strain, Y2HGold. […] Transformants were plated on SC-Trp-Leu plates to select for those containing both plasmids. Four healthy colonies were selected at random and resuspended into 300 μL of 0.1% agar in water. Five μL of this dilution was replica spotted onto each plate. Plates were incubated at 30° C. for 3 days prior to evaluation of colony growth.
(§3) This method enabled the study of the binding/interaction of the Kochia R and S alleles of KsIAA16 with each of the Kochia TIR/AFB homologs (KsTIR1 (SEQ ID NO: 285), and KsAFB6 (SEQ ID NO: 287)) in the absence or presence of 100 μM or 500 μM exogenous concentrations of IAA, NAA, dicamba, and 2,4-D, picloram, triclopyr, quinclorac, fluroxypyr or phenylacetic acid (PAA).

[2] = test system: KsIAA16 (R and S alleles) with KsTIR1 and/or KsAFB6; test: Y2H assay, summary statements over the protein combinations tested; assay type: binding, Kochia scoparia; conditions: for Facilitation of interaction of KsIAA16R with KsTIR1 and/or KsAFB6: at the concentrations tested
Method: as §1, §2, §3

[3] = test system: seedlings of the R and S Kochia biotypes; test: Root elongation response of Kochia seedlings; assay type: in vivo, Kochia scoparia
Method: The root elongation response of seedlings from the R and S Kochia biotypes was tested to determine if the R biotype response was consistent with the Y2H findings. For root elongation studies, plant nutrient media was used, with 0.5% sucrose. Seeds were surface sterilized in 30% bleach with 0.1% Triton-X100 for 10 to 30 minutes, then rinsed twice in sterile water and resuspended in 0.1% agar for plating. Root lengths were measured to the nearest millimeter, and the average root length of 12 individuals was calculated unless otherwise noted.

[4] = test system: KsIAA16S in combination with KsAFB6; test: Yeast two-hybrid (Y2H) assay: KsIAA16S binding with KsAFB6 in presence of auxin; design: species or system Kochia scoparia; conditions: allele KsIAA16S; auxin 500 μM; yeast colony growth
Method: as §1
PCR products were gel purified and recombined into NdeI/NotI digested pGADT7 or pGBKT7 vectors using the In-Fusion® cloning system (Clonetech Laboratories, Inc.). The pGBKT7 vector contained the GAL4 DNA binding domain, rendering the fusions as the “bait,” whereas the “prey” were the fusions containing the pGADT7 vector, which contained the GAL4 activation domain. All vectors were first sequence verified and then the listed vector combinations were co-transformed into the yeast strain, Y2HGold. […] Transformants were plated on SC-Trp-Leu plates to select for those containing both plasmids. Four healthy colonies were selected at random and resuspended into 300 μL of 0.1% agar in water. Five μL of this dilution was replica spotted onto each plate. Plates were incubated at 30° C. for 3 days prior to evaluation of colony growth. […]

Ability of KsIAA16R to interact with KsAFB6 in the presence of the auxin ([1]; only the higher concentration could facilitate binding)	SMILES	Facilitation of interaction of KsIAA16R with KsTIR1 and/or KsAFB6 [2]	Root elongation inhibition of the R Kochia biotype ([3]; R biotype seedlings, FIG. 5)	Y2H interaction in the presence of the auxin ([2]; any of the protein combinations tested)	Effect on root elongation ([3]; Kochia seedlings, biotype not stated)	Ability to bind in combination with KsAFB6 [4]	Interaction between KsIAA16R and KsAFB6 in the presence of the auxin [1]
reduced ability to interact	O=C(O)Cc1cccc2ccccc12 [NAA, 2-(1-naphthyl) acetic acid]	can facilitate some interaction	remained sensitive				
	O=C(O)Cc1ccccc1 [PAA, phenylacetic acid]			No interaction	had an effect on root elongation		
	Nc1c(Cl)c(Cl)nc(C(=O)O)c1Cl [Picloram, 4-amino-3,5,6-trichloro-2-pyridinecarboxylic acid]	cannot				observed to interact	not observed
	O=C(O)c1c(Cl)ccc2cc(Cl)cnc12 [Quinclorac, 3,7-dichloro-8-quinolinecarboxylic acid]	cannot				observed to interact	not observed
